Where two headings read alike, the source gives them in different places.
Experiments:
Assay type in all cases: biochemical
IKKe = target: T1, IKKe (Homo sapiens, UniProt Q14164); assay: Kinase screen: IKKe / IKKepsilon (DU14231) assay; conditions: 10 micromolar compound; for remaining activity at 10 µM: read-out: mean activity remaining (as a percentage of the original activity), IKKe
T1 construct: DU14231
T1 sequence (Q14164 1-716): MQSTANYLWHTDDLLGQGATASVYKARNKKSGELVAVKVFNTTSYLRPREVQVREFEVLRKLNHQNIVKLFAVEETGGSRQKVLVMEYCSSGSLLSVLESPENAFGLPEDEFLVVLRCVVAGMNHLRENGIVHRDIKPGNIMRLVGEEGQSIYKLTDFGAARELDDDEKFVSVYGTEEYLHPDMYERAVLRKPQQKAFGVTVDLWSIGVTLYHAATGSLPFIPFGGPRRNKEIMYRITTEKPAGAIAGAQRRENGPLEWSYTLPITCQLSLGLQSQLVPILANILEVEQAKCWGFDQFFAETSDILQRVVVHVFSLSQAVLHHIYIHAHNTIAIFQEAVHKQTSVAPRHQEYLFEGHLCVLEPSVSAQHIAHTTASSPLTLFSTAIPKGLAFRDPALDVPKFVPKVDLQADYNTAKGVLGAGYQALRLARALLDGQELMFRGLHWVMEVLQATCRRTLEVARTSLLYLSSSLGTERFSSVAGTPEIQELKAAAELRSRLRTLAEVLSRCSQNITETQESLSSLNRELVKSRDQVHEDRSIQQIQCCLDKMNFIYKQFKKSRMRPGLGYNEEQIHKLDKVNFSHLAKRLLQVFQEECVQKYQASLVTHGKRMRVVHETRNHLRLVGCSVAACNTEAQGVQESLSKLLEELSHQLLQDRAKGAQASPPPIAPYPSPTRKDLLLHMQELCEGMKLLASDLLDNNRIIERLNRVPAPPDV
Experimental: (§1) Generally, the same procedure was used for all assays. Since the total assay volume was 25.5 microliters, 0.5 microliters of inhibitors at 51× assay concentration were added to the plates before any other addition.
(§2) The basic procedure was to add 0.5 microliters inhibitor/control in DMSO to plate. Fifteen microliters of enzyme/substrate/buffer mix were added and incubated for 5 min. Ten microliters MgATP at the relevant concentration were added and incubated for 30 min. The assay was stopped by adding 5 microliters of 3% orthophosphoric acid. The assay was transferred to a p81 filter plate and read in a scintillation counter of 30 sec/well. Note that this assay procedure was not followed for MKK1, which instead involved a two-step assay, and PKC alpha, which required the addition of lipid vesicles.
(§3) IKKe assay: 5-20 mU of IKKe (diluted in 50 mM Tris (pH 7.5), 0.1 mM EGTA, 1 mg/ml BSA) was assayed against MBP in a final volume of 25.5 μl containing 50 mM Tris (pH 7.5), 0.1 mM EGTA, 0.33 mg/ml MBP, 10 mM magnesium acetate and 0.05 mM [33P-g-ATP] (500-1000 cpm/pmole) and incubated for 30 mins at room temperature. Assays were stopped by addition of 5 μl of 0.5M (3%) orthophosphoric acid. Assays were harvested onto P81 Unifilter plates using a wash buffer of 50 mM orthophosphoric acid.
as §3, with “IKKepsilon (DU14231)” for “IKKe”, “IKKepsilon (DU14231)(diluted” for “IKKe (diluted”

SGK1 = target: T2, SGK1 (Homo sapiens, UniProt O00141); assay: Kinase screen: SGK assay
T2 sequence (O00141 1-431): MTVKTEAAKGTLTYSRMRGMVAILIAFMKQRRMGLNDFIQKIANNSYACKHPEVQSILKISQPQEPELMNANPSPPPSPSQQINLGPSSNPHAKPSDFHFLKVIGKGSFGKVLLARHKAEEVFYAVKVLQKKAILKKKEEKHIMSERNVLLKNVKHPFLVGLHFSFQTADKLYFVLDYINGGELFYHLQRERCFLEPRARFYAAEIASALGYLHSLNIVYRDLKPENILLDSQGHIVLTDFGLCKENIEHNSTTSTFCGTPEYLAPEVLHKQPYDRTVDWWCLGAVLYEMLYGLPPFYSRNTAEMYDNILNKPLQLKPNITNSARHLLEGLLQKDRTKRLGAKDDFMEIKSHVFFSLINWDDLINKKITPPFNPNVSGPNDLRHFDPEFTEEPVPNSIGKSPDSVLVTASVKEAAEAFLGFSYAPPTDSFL
Experimental: as §1, §2
SGK assay: SGK (5-20 mU diluted in 20 mM MOPS pH 7.5, 1 mM EDTA, 0.01% Brij35, 5% glycerol, 0.1% b-mercaptoethanol, 1 mg/ml BSA) was assayed against a modified Crosstide peptide […] (SEQ ID NO: 4) in a final volume of 25.5 μl containing 8 mM MOPS pH 7.0, 0.2 mM EDTA, 30 μM substrate peptide, 10 mM magnesium acetate and 0.02 mM [33P-g-ATP] (50-1000 cpm/pmole) and incubated for 30 min at room temperature. Assays were stopped by addition of 5 μl of 0.5 M (3%) orthophosphoric acid and then harvested onto P81 Unifilter plates with a wash buffer of 50 mM orthophosphoric acid.

JNK2 = JNK2 (Homo sapiens, UniProt P45984); assay: Kinase screen: JNK2 assay
Experimental: as §1, §2
JNK2 assay: JNK2 1(5-20 mU diluted in 50 mM Tris (pH 7.5), 0.1 mM EGTA, 1 mg/ml BSA, 0.1% b-mercaptoethanol) was assayed against ATF2 (activating transcription factor in a final volume of 25.5 μl in 50 mM Tris pH 7.5, 0.1 mM EGTA, 0.1% b-Mercaptoethanol, ATF2 (3 μM), 10 mM magnesium acetate and 0.02 mM [33P-g-ATP] (500-1000 cpm/pmole) and incubated for 30 min at room temperature. Assays were stopped by addition of 5 μl of 0.5 M (3%) orthophosphoric acid and then harvested onto P81 Unifilter plates with a wash buffer of 50 mM orthophosphoric acid.

[1] = 10 micromolar compound, read-out: mean activity remaining (as a percentage of the original activity), SGK1
[2] = 10 micromolar compound, read-out: mean activity remaining (as a percentage of the original activity), JNK2

Sequence of JNK2 (P45984 whole entry, species assumed): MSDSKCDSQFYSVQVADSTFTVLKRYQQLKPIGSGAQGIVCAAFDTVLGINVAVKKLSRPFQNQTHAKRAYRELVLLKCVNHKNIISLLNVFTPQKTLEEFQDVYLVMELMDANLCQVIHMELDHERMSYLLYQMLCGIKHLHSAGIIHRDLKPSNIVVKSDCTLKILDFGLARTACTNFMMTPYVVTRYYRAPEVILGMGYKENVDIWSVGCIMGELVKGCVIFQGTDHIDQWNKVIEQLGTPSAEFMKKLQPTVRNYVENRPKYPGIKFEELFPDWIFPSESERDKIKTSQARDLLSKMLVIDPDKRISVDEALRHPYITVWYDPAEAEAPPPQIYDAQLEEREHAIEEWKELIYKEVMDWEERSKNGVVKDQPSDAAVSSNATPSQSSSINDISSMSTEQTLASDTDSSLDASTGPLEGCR

SMILES | mean activity remaining (as a percentage of the original activity), IKKe (IKKe) | mean activity remaining (as a percentage of the original activity), SGK1 (SGK1; 10 micromolar compound) | mean activity remaining (as a percentage of the original activity), JNK2 (JNK2; 10 micromolar compound) | remaining activity at 10 µM (SGK1; SGK1, 10 μM, read-out: Mean Remaining Enzyme Activity (%)) | remaining activity at 10 µM (JNK2; JNK2, 10 μM, read-out: Mean Remaining Enzyme Activity (%)) | remaining activity at 10 µM (IKKe) | remaining activity at 10 µM (SGK1; [1]) | remaining activity at 10 µM (JNK2; [2])
CC(C)c1cnn2c(NCc3ccccc3F)cc(NCCCCCN)nc12 [ICEC-0232] | 92% | 50% | 89% |  |  |  |  | 
CC(C)c1cnn2c(NCc3ccccc3)cc(NCCCCCCCN)nc12 [BS-181] |  |  |  | 42% | 90% |  |  | 
CC[C@H](CO)Nc1cc(NCc2ccccc2)n2ncc(C(C)C)c2n1 [ICEC0067] |  |  |  |  |  | 103% | 89% | 97%
C=C[C@H](CO)Nc1cc(NCc2ccccc2)n2ncc(C(C)C)c2n1 [ICEC0065] |  |  |  |  |  | 101% | 84% | 88%
CC(C)c1cnn2c(NCc3ccccc3)cc(N[C@@H](CO)[C@H](O)CO)nc12 [ICEC0318, (3S)-3-(7-(Benzylamino)-3-isopropylpyrazolo[1,5-a]pyrimidin-5-ylamino)butane-1,2,4-triol] |  |  |  |  |  | 94% | 92% | 94%

Source: patent US8067424B2, “Selective inhibitors for cyclin-dependent kinases” (Emory University, priority 2007, dated 2011)
